{"source": "patent US11179358B2", "about": "“Compound for use in the prevention and treatment of neurodegenerative diseases” (Universität Wien, priority 2015, dated 2021)", "key": {"[1]": {"system": "RA/PMA differentiated SH-SY5Y cells", "assay": "Sulfocalixarene protection against Lcn2/NGAL cytotoxicity", "format": "cell-based", "details": "human differentiated SH-SY5Y neuroblastoma cells", "protocol": "(§1) FIG. 11: Sulfocalixarene protection against Lcn2/NGAL cytotoxicity. A. SH-SY5Y RA/PMA differentiated cells were treated for 24 and 48 hours with two lethal concentrations of Lcn2/NGAL (100 μg/ml and 200 μg/ml). Cells were challenged with increasing concentration of Sulfocalixarene and assessed for MTT and phase contrast microscopy analyses. B. SH-SY5Y RA/PMA differentiated cells were treated for 24 and 48 hours with two lethal concentrations of MPP+ (0.5 mM and 10 mM). Cells were challenged with increasing concentration of Sulfocalixarene and assessed for MTT and phase contrast microscopy analyses.\nTo further study the effect of the compound in neuronal cellular cultures, a cytotoxicity assay was developed using the human Neuroblastoma SH-SY5Y cell line as an in vitro model for dopaminergic neurons. First, it was shown that RA-PMA terminally differentiated SH-SY5Y cells are sensitive to Lcn2/NGAL cytotoxicity in a dose dependent manner. Moreover, in the presence of reactive oxygen species (ROS) triggered by H2O2 the Lcn2/NGAL cytotoxicity is stronger. Second, it could be shown that SH-SY5Y terminally differentiated cells express ˜5× more the Lcn2/NGAL cognate receptor (SLC22A17) on the plasma membrane."}, "[2]": {"system": "transgenic animal models for Parkinson Disease (PD)", "assay": "Immunostaining of cortex in transgenic animal models for Parkinson Disease and healthy controls", "format": "in vivo, mice", "source_text": "FIG. 3: Quantification of the neuronal-immunostaining experiments. Total area, average size and % area are different computational strategies to quantify the number of neurons (however, leading to the same results).\nFIG. 4: Immunostaining of astrocytes in healthy (control) and transgenic animals (PD). […] The numbers given for the transgenic animal models are average numbers (and standard deviation) of astrocytes obtained for different animals and cortex regions.\nFIG. 6: Quantification of α-synuclein aggregates."}, "Lcn2": {"target": "Lcn2 (Homo sapiens, UniProt P80188)", "sequence (P80188 21-198)": "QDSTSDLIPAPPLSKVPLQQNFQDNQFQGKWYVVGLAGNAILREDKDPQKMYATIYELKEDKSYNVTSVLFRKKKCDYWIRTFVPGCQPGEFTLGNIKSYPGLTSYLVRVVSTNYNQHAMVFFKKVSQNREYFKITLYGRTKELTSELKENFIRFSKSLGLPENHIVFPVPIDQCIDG", "assay": "Isothermal titration calorimetry of Sulfocalixarene binding to Lcn2", "details": "ITC, 25° C., 20 mM Tris pH 7.4, 50 mM NaCl, single binding site", "protocol": "Isothermal Titration Calorimetry (ITC)—Binding of free and bound Sulfocalixarene to Lcn2 was determined by ITC using a Microcal ITC200 microcalorimeter. Experiments were carried out at 25° C. in 20 mM Tris pH 7.4, 50 mM NaCl. The reference cell contained Milli Q water. The concentration of Lcn2 in the reaction cell was 50 μM. The concentration of Sulfocalixarene in the syringe was 500 μM. The titration consisted in 19 successive injections of 4 μL, with a stirring speed of 800 rpm, separated by intervals of 300 s. Data analysis was done with the Origin software assuming a single binding site.\nFIG. 7 illustrates a biophysical characterization of the Sulfocalixarene binding to soluble Lcn2. (top). Overlay of ^1H-^15N HSQC spectra for Lcn2 without (red) and with Sulfocalixarene (blue). Changes of cross peak frequencies (positions) indicate residues which are affected upon binding. (bottom) Isothermal titration calorimetry traces of Sulfocalixarene binding to Lcn2. Sulfocalixarene binds to Lcn2 with a KD of about 700 nM."}, "[3]": {"system": "RA/PMA differentiated SH-SY5Y cells", "assay": "Sulfocalixarene protection against MPP+ and H2O2 cytotoxicity", "format": "cell-based, human", "details": "Sulfocalixarene 500 μM and 100 μM", "protocol": "as §1\nFIG. 12: Sulfocalixarene protection against MPP+ and H2O2 cytotoxicity. Representative phase-contrast microscope images of RA/PMA differentiated SH-SY5Y cells, scale bar 100 μm.\nFurthermore, it was shown that Sulfocalixarene protected against MPP+ (a substrate for the dopamine transporter that is taken up selectively into dopaminergic neurons where it inhibits Complex I of the mitochondrial electron transport chain) and H2O2 stress in human differentiated SH-SY5Y cells. Oxidative stress and mitochondrial damage have been implicated in the pathogenesis of several neurodegenerative diseases."}, "[4]": {"system": "transgenic (tg) animals Line 61", "assay": "Pasta Gnawing Test", "format": "in vivo, mice", "protocol": "FIG. 13: Pasta Gnawing. The Pasta Gnawing Test is a stress-free behavioral experiment for evaluation of motor deficits in rodents. During the test, the gnawing noises of the animals while eating a piece of dry pasta are recorded. Parameters such as biting speed and number of bites/chewing episode are evaluated.\nData are shown as mean±SEM. Statistics 1-Way-Anova. Statistically significant group differences are indicated with asterisks (for One Way Anova) and hashtag (for t-test); *p<0.05; **p<0.01; #p<0.05."}, "α-synuclein": {"target": "α-synuclein (Homo sapiens, UniProt P37840)", "assay": "NMR probing of interaction between α-synuclein and Sulfocalixarene, with and without POPG liposomes", "format": "binding", "protocol": "POPG was ordered from Avantis Polar Lipids as a stock of 5 mg/ml dissolved in chloroform. The stock solution was aliquotted in glass vials, most chloroform was evaporated under nitrogen flow and the sample was then dried under vacuum for a minimum of 45 min. POPG was dissolved in the desired buffer to 1 mg/ml, kept at RT for 1 hr and subjected to 3 freeze-thaw cycles for complete solvation. The suspension was sonicated in a bath sonicator for 5 min and cycled through an extruder (Avanti® mini-Extruder) equipped with a 0.4 μm membrane for 20 times.\nTo allow for high concentration measurements, the resulting solution was centrifuged at 200,000×g for 10 min, 75% of the supernatant were discarded and the pellet was resuspended in the remaining 25% yielding a solution of 4 mg/ml POPG. This solution was frozen in aliquots before being used in further measurements. […]\nFor all NMR-measurements the protein was dialyzed into 20 mM phosphate, pH=7.4, 100 mM NaCl. […] NMR-Spectra were recorded on Varian Direct Drive 600 MHz and Varian Inova 800 MHz spectrometers with 10% D2O as lock solvent. […] Resonance assignment at near physiological conditions was readily available from a previous publication (J. N. Rao, Y. E. Kim, L. S. Park, T. S. Ulmer, Effect of pseudorepeat rearrangement on alpha-synuclein misfolding, vesicle binding, and micelle binding. J Mol Biol 390, 516-529 (2009)) (BMRB ID 16300). […]"}}, "note": "“Also recorded” adds a separate entry of the source.", "data": [{"compound": "O=S(=O)(O)c1cc2c(O)c(c1)Cc1cc(S(=O)(=O)O)cc(c1O)Cc1cc(S(=O)(=O)O)cc(c1O)Cc1cc(S(=O)(=O)O)cc(c1O)C2", "note": "[Sulfocalixarene, 4-sulfocalix[4]arene]", "values": [{"measurement": "neuroprotection against Lcn2/NGAL cytotoxicity", "setting": "[1]", "result": "has neuroprotection properties against the cytotoxic protein Lcn2/NGAL"}, {"measurement": "number of astrocytes", "setting": "[2]; healthy control animals", "result": "unaffected"}, {"measurement": "number of neurons in the cortex", "setting": "[2]; transgenic animal models for PD", "result": "increase of the number of neurons in the cortex"}, {"measurement": "pathological α-synuclein aggregates", "setting": "[2]; transgenic animals (PD)", "result": "reduction of pathological α-synuclein aggregates; also recorded: significant reduction of α-synuclein aggregates"}, {"measurement": "number of astrocytes", "setting": "[2]; transgenic animals (PD), cortex", "result": "increase of the number of (presumably neurotrophic quiescent) astrocytes"}, {"measurement": "Kd", "setting": "Lcn2", "result": "~700", "unit": "nM"}, {"measurement": "cell viability reduction induced by H2O2", "setting": "[3]", "result": "attenuates the reduction of cell viability"}, {"measurement": "cell viability reduction induced by MPP+", "setting": "[3]", "result": "attenuates the reduction of cell viability"}, {"measurement": "bites per episode", "setting": "[4]; day 28, tg Line 61, versus tg animals treated with vehicle", "result": "significant more bites per episode"}, {"measurement": "biting speed", "setting": "[4]; tg Line 61, versus tg animals treated with vehicle", "result": "more biting speed"}, {"measurement": "location of binding site on α-synuclein (NMR chemical shift changes)", "setting": "α-synuclein; monomeric (soluble) α-Synuclein", "result": "N-terminal domain of α-synuclein; also recorded: N-terminal part of α-Synuclein; also recorded: N-terminal domain (1-40)"}, {"measurement": "release of α-syn from POPG liposomes (NMR signal intensity ratio)", "setting": "α-synuclein; α-syn (120 µM) with POPG-liposomes (0.8 mg/ml)", "result": "partly releases α-syn from the liposomes"}]}]}
